{
  "source": "patent US9573972B2",
  "about": "“Nurotoxic sterol glycosides” (priority 2008, dated 2017)",
  "key": {"Heat shock protein-70": {"system": "Heat shock protein-70", "assay": "Anti-Hsp-70 immunofluorescence", "type": "in vivo, mouse", "conditions": "for Anti-Hsp-70 (VHLsc), change: ventral horn lumbar spinal cord; for Anti-Hsp-70 (VHLsc), change / Anti-Hsp-70 (VHTsc): SG-fed vs control; for Anti-Hsp-70 (VHTsc): ventral horn thoracic spinal cord", "method": "Tissue-mounted slides were processed for fluorescence microscopy as follows: Sections were rinsed in coplin jars for 45 minutes at room temperature (RT) in three changes of PBS. Sections were then incubated at RT for 30 minutes in a blocking permeabilization solution made of 5% normal goat serum (NGS), 5% normal rabbit serum (NRS) or 5% BlokHen II (Ayes Labs, Inc., Tigard, Oreg.), 0.05% Triton X-100 and PBS. Subsequently, the blocking solution was tipped off and the slides were rinsed in PBS for 2 minutes. Sections were then incubated overnight in a humidified chamber at 4° C. with a PBS buffered solution that contained 1% NGS or 1% NRS, 1% bovine serum albumin (BSA) and one of the following primary antibodies: (a) rabbit anti-human/mouse ATF-3 (H-90) IgG (polyclonal, 1:500; Santa Cruz Biotechnology, Inc., Santa Cruz, Calif.), (b) anti-activated caspase-3 IgG (monoclonal, 1:250; Chemicon International, Temecula, Calif.) (see FIG. 9), (c) goat antihuman/mouse choline acetyl transferase (ChAT) IgG (polyclonal, 1:100; Chemicon International, Temecula, Calif.) (see FIG. 6), (d) rabbit anti-mouse glial fibrillary acidic protein IgG (polyclonal, 1:250; GeneTex Inc., San Antonio, Tex.) (see FIG. 7), (e) rabbit antihuman/mouse ionized calcium binding adaptor molecule 1 (IBA-1) IgG (polyclonal, 1:500; Wako Pure Chemical Industries, Ltd, Richmond, Va.), (f) mouse anti-human/mouse clone AT8 PHF-1 Tau (monoclonal, 1:200; Pierce Biotechnology Inc., Rockford, Ill.), (g) rabbit anti-human/mouse TAR DNA-binding protein 43 (TDP43) (1:100; ProteinTech Group Inc., Chicago, Ill.) (See FIG. 14), (h) chicken anti-human/mouse β-tubulin 3 (TuJ1 antigen) (polyclonal, 1:100, Ayes Labs, Inc., Tigard, Oreg.), (i) rabbit anti-mouse tyrosine hydroxylase (polyclonal, 1:500, Chemicon International, Temecula, Calif. or polyclonal 1:1000, Affinity BioReagents, Golden, Colo.) (FIG. 10), (j) rabbit anti human/mouse anti-pJunscr73 IgG (polyclonal, 1:200; Chemicon International, Temecula, Calif.), (k) rabbit anti human/mouse anti-HSP-70 IgG (polyclonal, 1:200; Chemicon International, Temecula, Calif.), or (1) rabbit anti human/mouse anti-HSP-25 IgG (polyclonal, 1:100; Chemicon International, Temecula, Calif.). In each experiment, additional slides were incubated with the primary antibody and the secondary antibody omitted or with secondary antibody and primary antibody omitted to test for nonspecific staining. Where appropriate, positive control slides (Alzheimer's disease patient entorhinal cortex, obtained from Drs. Claudia Schwab and Patrick McGeer of the Kinsmen Laboratory, University of British Columbia, Vancouver, BC, Canada) were also processed as above for comparison. Following overnight incubation with the primary antibody, slides were rinsed for 45 minutes at RT in three changes of PBS. Immediately after, the slides were incubated in black chambers that excluded light for 1 hour at RT with the secondary antibody solutions containing 5% NGS or 5% NRS and fluorophore conjugated antibodies: AlexaFluor 568 goat anti-rabbit or rabbit anti-goat IgG (monoclonal, 1:250, absorption: 578 nm, emission 603 nm; Molecular Probes, Eugene, Oreg.), AlexaFluor 546 goat antirabbit or rabbit anti-goat IgG (monoclonal; 1:250, absorption 556 nm, emission 573 nm; Molecular Probes, Eugene, Oreg.) or fluorescein isothiocyanate (FITC) goat anti-rabbit IgG (polyclonal, 1:500, absorption: 494 nm, emission: 518 nm; Sigma, Saint Louis, Mo.). The secondary antibody solution was tipped off and slides were rinsed for 15 minutes in three changes of PBS. Tissue sections were cover-slipped with a 4′6 diamidino-2-phenylindole (DAPI) fluorescent mounting media (Vectashield, absorption: 360 nm, emission: 460 nm, Vector Laboratories, Burlington, ON, Canada) in order to label the nuclei and stored at 4° C. in dark slide boxes to retard bleaching of the fluorescent labels. […]"}, "Cytochrome c oxidase": {"system": "Cytochrome c oxidase", "assay": "Cytochrome c oxidase histochemistry", "type": "in vivo, mouse", "conditions": "SG-fed vs control", "method": "Tissue-mounted slides were processed for […] in a manner adapted from (Seligman et al., J. Cell. Biol. 1968; 38: 1-14) and Wong-Riley, (1979), Brain Res. 171, 11-28. Sections were rinsed in coplin jars for 15 minutes at RT in three changes of PBS and subsequently incubated with a media comprised of 50 mg of 3,3′-diaminobenzidine tetrahydrochloride (DAB) (DAB substrate system, Vector Laboratories, Burlingame, Calif., USA), 90 mL 0.1M phosphate buffer, 20 mg cytochrome c (type III, Sigma-Aldrich Co., Oakville, ON, Canada), and 4 g of sucrose in a dish submerged in a water bath maintained at 37° C. in the dark for 2 hours. The sections were monitored closely for the brown reaction product to appear within the tissue. Once a medium-brown color was achieved, slides were removed from the incubation media and rinsed for 15 minutes in three changes of PBS to stop the reaction. This was followed with a 2 minutes rinse in distilled water to remove residue from the slides. The slides were dried under a fume hood and cover-slipped with Entellen (Merck, Darmstadt, Germany).\nThe numbers of immunoreactive somata or inclusions were counted across the ventral horn of the spinal cord, across brain hemispheres, or per dorsal or ventral root with the 40× objective lens in a 600 μm/600 μm area within region perimeters defined by a mouse brain atlas (2001). For each animal, eight cross-sections per spinal cord or brain region were studied. […] For quantification of the level of mitochondrial activity (cytochrome c oxidase labelling) in the lumbar spinal cord or tyrosine hydroxylase immunoreactivity in the substantia nigra pars compacta and striatal sections, images captured using the Motic B5 Professional Series 3.0 microscope (Motic Instruments Inc., Richmond, ON) and analyzed using Motic B5 Professional, Motic Images Advanced 3.0 (Motic Instruments Inc., Richmond, ON) were scanned into a TIFF format file and analysed using the NIH Image J 1.37 software to measure density levels of antibody labelling. […]"}, "[1]": {"conditions": "SG-fed group over time (35 to 52 wk)"}},
  "note": "Marks after values point to notes of the source that are not given here.",
  "data": [
    {"smiles": "CC[C@H](/C=C/[C@@H](C)[C@H]1CC[C@H]2[C@@H]3CC=C4C[C@@H](O[C@@H]5O[C@H](CO)[C@@H](O)[C@H](O)[C@H]5O)CC[C@]4(C)[C@H]3CC[C@]12C)C(C)C", "note": "[SG, Stigmasterol β-D-Glucopyranoside]", "values": [
      {"measurement": "Anti-Hsp-70 Lsc over time", "setting": "Heat shock protein-70; [1]", "value": "Anti-Hsp-70 Lsc (SG-fed group over time) (ns, p = 0.1223)"},
      {"measurement": "Anti-Hsp-70 Tsc over time", "setting": "Heat shock protein-70; [1]", "value": "Anti-Hsp-70 Tsc (SG-fed group over time) (ns, p = 0.8319)"},
      {"measurement": "Anti-Hsp-70 (VHLsc), change", "setting": "Heat shock protein-70; Time-point 1 (35 wk)", "value": "Anti-Hsp-70: +1036%***"},
      {"measurement": "Anti-Hsp-70 (VHLsc), change", "setting": "Heat shock protein-70; Time-point 2 (52 wk)", "value": "Anti-Hsp-70: +425%*"},
      {"measurement": "Anti-Hsp-70 (VHTsc)", "setting": "Heat shock protein-70; Time-point 1 (35 wk)", "value": "Anti-Hsp-70: (ns, p = 0.9697)"},
      {"measurement": "Anti-Hsp-70 (VHTsc)", "setting": "Heat shock protein-70; Time-point 2 (52 wk)", "value": "Anti-Hsp-70: (ns, p = 0.2793)"},
      {"measurement": "Cytochrome c oxidase activity", "setting": "Cytochrome c oxidase; Time-point 1 (35 wk)", "value": "(ns)"},
      {"measurement": "Cytochrome c oxidase activity", "setting": "Cytochrome c oxidase; Time-point 2 (52 wk)", "value": "(ns)"},
      {"measurement": "Cytochrome c oxidase activity, difference between groups", "setting": "Cytochrome c oxidase; at 35 or 52 weeks", "value": "no significant differences"}
    ]}
  ]
}
